For test [1], the system named is SNB-7. The experiment in a line: Growth inhibition of human SNB7 cells after 72 hrs. It counts as functional, cell-based. The following applies: SNB-7, 72 h.
In test [2] the test system is ZR-75-1. The experiment in a line: Growth inhibition of human ZR-75-1 cells after 72 hrs. It counts as functional, cell-based. The conditions noted are these: ZR-75-1, 72 h.
The subject of test [3] is CAKI-1. The experiment in a line: Growth inhibition of human CAKI1 cells after 72 hrs. It counts as functional, cell-based. The conditions noted are these: CAKI-1, 72 h.
The test system of test [4] is PC-3. The experiment in a line: Growth inhibition of human PC3 cells after 72 hrs. It counts as functional, cell-based. The following applies: PC-3, 72 h.
The test system of test [5] is NCI-H23. The experiment in a line: cells. The following applies: Homo sapiens, NCI-H23, 72 h.
Description: Growth inhibition of human NCI-H23 cells after 72 hrs
Test [6] relates to DLD-1. The experiment in a line: Growth inhibition of human DLD1 cells after 72 hrs. The test is classed as functional, cell-based. The following applies: DLD-1, 72 h.
Test [7] has as its system LOX IMVI. The experiment in a line: cells. The conditions noted are these: Homo sapiens, 72 h.
Description: Growth inhibition of human LOX IMVI cells after 72 hrs

≈ marks a conversion by molar mass, not a printed value.

With `CN(Cc1cnc2nc(N)nc(N)c2n1)c1ccc(C(=O)N[C@@H](CCC(=O)O)C(=O)O)cc1` [METHOTREXATE], the IC50 – broadly, the concentration that inhibits the measured activity by half – in test [1] was greater than 60 µg/mL; in test [2], greater than 60 µg/mL; in test [3], greater than 60 µg/mL; in test [4], 0.027 µg/mL (≈ 0.0594 µM); in test [5], 0.29 µg/mL (≈ 0.638 µM); in test [6], greater than 60 µg/mL. The same molecule registered an IC50 in test [7] of 0.057 µg/mL (≈ 0.125 µM).

These data come from ChEMBL document CHEMBL1145424, “Novel boron-containing, nonclassical antifolates: synthesis and preliminary biological and structural evaluation” (J Med Chem, 2007).
